Data reported in patent publication US7381521B2, “Anti-pathogenic composition useful in blood preservation” (Altachem Pharma Ltd., priority 2001, dated 2008).

Legend:
human fibroblastic cells = assay: Cytotoxicity check of the products on human fibroblastic cells; format: cell-based
Protocol: Cytotoxicity checks are conducted on the products for cellular cultures used in the tests, that is to say the human fibroblastic cells.
The cells are cultivated on a Dulbecco medium enriched with 10% fetal calf serum; at the moment of their use, the cells are washed and the same culture medium is used but without calf serum.
For each product tested or each composition, 10 tubes of cellular culture were used and after inoculation of the product, the tubes were kept under observation for 3 days.
Each product was, in succession, used pure and at dilutions of 10^−1, 10^−2, 10^−3 and added to culture tubes containing 1 ml of nutrient medium in a volume of 0.1 ml.

S. aureus ATCC 6538 [1] = assay: Test 2 (DGHM), growth inhibition by dilutions, 72 hours at 37° C.; format: cell-based, Staphylococcus aureus
Protocol: (§1) Another test was carried out a basis of the following solutions • 100 ml of a 0.1% solution of chlorohexidine digluconate (pH 6); and • 100 ml of a 0.1% solution of Bardac22®.
(§2) The activity of these solutions, alone or in combination, was more particularly tested in respect of Staphylococcus aureus ATCC 6538, Escherichia coli ATCC 11229 and Candida albicans ATCC 10231.
(§3) The tests were conducted in accordance with the procedure described in Chapter I/2.1 and 2.2 of Tichtlinien für die Prüfung und Bewertung chemischer Desinfektionsverfahren der DGHM/Guidelines for Testing and Evaluating Chemical Disinfection Processes of DGHM as at 1.1, 1981.
Tables IX, X and XI respectively illustrate the bactericidal and fungicidal activity of a 0.1% aqueous solution of chlorohexidine digluconate, a 0.1% aqueous solution of Bardac22® and a mixture of equal parts of both compounds. The procedures of which these Tables illustrate the results comprise incubation of 72 hours at 37° C. and the use of the following inactivating substances as controls: • A: 3% Tween®80+0.3% lecithin+0.1% cysteine • B: 3% Tween®80+3% saponin+0.1% cysteine+0.1% histidine; • C: 3% Tween®80+0.3% lecithin+0.1% histidine+0.5% sodium thiosulphate.
In these Tables, the sign “+” indicates an increase and the sign “−” denotes the absence of growth.

S. aureus ATCC 6538 [2] = assay: Test 2 (DGHM), action as a function of disinfection time at 22° C., 8 × 10^8 organisms/ml; format: cell-based, Staphylococcus aureus
Protocol: as §1, §2, §3

C. albicans ATCC 1031 = assay: Test 2 (DGHM), action as a function of disinfection time at 22° C., 8 × 10^7 organisms/ml; format: cell-based, Candida albicans
Protocol: as §1, §2, §3

[3] = tested on: erythrocytes in heparinized bovine blood; assay: In-vitro hemolysis of erythrocytes in heparinized whole blood, absorbance at 413 nm; settings: 1 hour at 37° C.
Protocol: The effect of the compounds on the in-vitro hemolysis of erythrocytes in heparinized whole blood is monitored by a spectrophotometric method.
Various formulations and concentrations of the test compound are added to heparinized bovine blood and mixed gently in a 1.5 ml microcentrifuge tube. The sample is allowed to incubate for 1 hour at 37° C. At the end of incubation, the samples are removed from the incubator and centrifuged at 2000 rpm for 5 minutes. A 200 μl aliquot of the supernatant is removed from each sample into a 96 well microtiter plate and read at 413 nm. The absorbance of the test sample is compared to the control sample containing phosphate buffered saline, pH 7.2.

With `[H]/N=C(\N/C(=N/[H])NCCCCCCNC(=N)NC(=N)Nc1ccc(Cl)cc1)Nc1ccc(Cl)cc1` [Chlorhexidine, chlorohexidine digluconate, reference compound] the “toxicity for the cell cultures” value (human fibroblastic cells) was “no toxicity”, the “concentration of active substance inhibiting growth” value (S. aureus ATCC 6538 [1]) was 0.0005% and the “dilution of the 0.1% solution inhibiting growth” value (S. aureus ATCC 6538 [1]) was 0.5%. The growth (S. aureus ATCC 6538 [1]; 0.00625% vol/vol, inactivator A) was “+”, the growth (S. aureus ATCC 6538 [1]; 0.00625% vol/vol, inactivator B) was “+” and the growth (S. aureus ATCC 6538 [1]; 0.00625% vol/vol, inactivator C) was “+”. For the same compound, the growth (S. aureus ATCC 6538 [1]; 0.00625% vol/vol, no inactivator) was “+”, the growth (S. aureus ATCC 6538 [1]; 0.0125% vol/vol, inactivator A) was “+” and the growth (S. aureus ATCC 6538 [1]; 0.0125% vol/vol, inactivator B) was “+”. For the same compound, the growth (S. aureus ATCC 6538 [1]; 0.0125% vol/vol, inactivator C) was “+”, the growth (S. aureus ATCC 6538 [1]; 0.0125% vol/vol, no inactivator) was “+” and the growth (S. aureus ATCC 6538 [1]; 0.025% vol/vol, inactivator A) was “+”. The growth (S. aureus ATCC 6538 [1]; 0.025% vol/vol, inactivator B) was “+”, the growth (S. aureus ATCC 6538 [1]; 0.025% vol/vol, inactivator C) was “+” and the growth (S. aureus ATCC 6538 [1]; 0.025% vol/vol, no inactivator) was “+”. For the same compound, the growth (S. aureus ATCC 6538 [1]; 0.05% vol/vol, inactivator A) was “+”, the growth (S. aureus ATCC 6538 [1]; 0.05% vol/vol, inactivator B) was “+” and the growth (S. aureus ATCC 6538 [1]; 0.05% vol/vol, inactivator C) was “+”. For the same compound, the growth (S. aureus ATCC 6538 [1]; 0.05% vol/vol, no inactivator) was “+”, the growth (S. aureus ATCC 6538 [1]; 0.1% vol/vol, inactivator A) was “+” and the growth (S. aureus ATCC 6538 [1]; 0.1% vol/vol, inactivator B) was “+”. For the same compound, the growth (S. aureus ATCC 6538 [1]; 0.1% vol/vol, inactivator C) was “+”, the growth (S. aureus ATCC 6538 [1]; 0.1% vol/vol, no inactivator) was “+” and the growth (S. aureus ATCC 6538 [1]; 0.5% vol/vol, inactivator A) was “+”. For the same compound, the growth (S. aureus ATCC 6538 [1]; 0.5% vol/vol, inactivator B) was “+”, the growth (S. aureus ATCC 6538 [1]; 0.5% vol/vol, inactivator C) was “+” and the growth (S. aureus ATCC 6538 [1]; 0.5% vol/vol, no inactivator) was “−”. The growth (S. aureus ATCC 6538 [1]; 1.0% vol/vol, inactivator A) was “+”, the growth (S. aureus ATCC 6538 [1]; 1.0% vol/vol, inactivator B) was “+” and the growth (S. aureus ATCC 6538 [1]; 1.0% vol/vol, inactivator C) was “+”. The growth (S. aureus ATCC 6538 [1]; 1.0% vol/vol, no inactivator) was “−”, the growth (S. aureus ATCC 6538 [2]; 0.05% vol/vol, 1 min) was “+” and the growth (S. aureus ATCC 6538 [2]; 0.05% vol/vol, 3 min) was “+”. For the same compound, the growth (S. aureus ATCC 6538 [2]; 0.05% vol/vol, 5 min) was “+”, the growth (S. aureus ATCC 6538 [2]; 0.05% vol/vol, 15 min) was “+” and the growth (S. aureus ATCC 6538 [2]; 0.05% vol/vol, 30 min) was “+”. The growth (S. aureus ATCC 6538 [2]; 0.05% vol/vol, 60 min) was “+”, the growth (S. aureus ATCC 6538 [2]; 0.1% vol/vol, 1 min) was “+” and the growth (S. aureus ATCC 6538 [2]; 0.1% vol/vol, 3 min) was “+”. For the same compound, the growth (S. aureus ATCC 6538 [2]; 0.1% vol/vol, 5 min) was “+”, the growth (S. aureus ATCC 6538 [2]; 0.1% vol/vol, 15 min) was “+” and the growth (S. aureus ATCC 6538 [2]; 0.1% vol/vol, 30 min) was “+”. The growth (S. aureus ATCC 6538 [2]; 0.1% vol/vol, 60 min) was “+”, the growth (S. aureus ATCC 6538 [2]; 0.5% vol/vol, 1 min) was “+” and the growth (S. aureus ATCC 6538 [2]; 0.5% vol/vol, 3 min) was “+”. The growth (S. aureus ATCC 6538 [2]; 0.5% vol/vol, 5 min) was “+”, the growth (S. aureus ATCC 6538 [2]; 0.5% vol/vol, 15 min) was “+” and the growth (S. aureus ATCC 6538 [2]; 0.5% vol/vol, 30 min) was “+”. For the same compound, the growth (S. aureus ATCC 6538 [2]; 0.5% vol/vol, 60 min) was “+”, the growth (S. aureus ATCC 6538 [2]; 1% vol/vol, 1 min) was “+” and the growth (S. aureus ATCC 6538 [2]; 1% vol/vol, 3 min) was “+”. The growth (S. aureus ATCC 6538 [2]; 1% vol/vol, 5 min) was “+”, the growth (S. aureus ATCC 6538 [2]; 1% vol/vol, 15 min) was “+” and the growth (S. aureus ATCC 6538 [2]; 1% vol/vol, 30 min) was “+”. For the same compound, the growth (S. aureus ATCC 6538 [2]; 1% vol/vol, 60 min) was “+”, the growth (S. aureus ATCC 6538 [2]; 5% vol/vol, 1 min) was “+” and the growth (S. aureus ATCC 6538 [2]; 5% vol/vol, 3 min) was “+”. For the same compound, the growth (S. aureus ATCC 6538 [2]; 5% vol/vol, 5 min) was “+”, the growth (S. aureus ATCC 6538 [2]; 5% vol/vol, 15 min) was “+” and the growth (S. aureus ATCC 6538 [2]; 5% vol/vol, 30 min) was “+”. The growth (S. aureus ATCC 6538 [2]; 5% vol/vol, 60 min) was “+”, the growth (S. aureus ATCC 6538 [2]; 10% vol/vol, 1 min) was “+” and the growth (S. aureus ATCC 6538 [2]; 10% vol/vol, 3 min) was “+”. The growth (S. aureus ATCC 6538 [2]; 10% vol/vol, 5 min) was “+”, the growth (S. aureus ATCC 6538 [2]; 10% vol/vol, 15 min) was “+” and the growth (S. aureus ATCC 6538 [2]; 10% vol/vol, 30 min) was “+”. For the same compound, the growth (S. aureus ATCC 6538 [2]; 10% vol/vol, 60 min) was “−”, the growth (S. aureus ATCC 6538 [2]; 25% vol/vol, 1 min) was “+” and the growth (S. aureus ATCC 6538 [2]; 25% vol/vol, 3 min) was “+”. For the same compound, the growth (S. aureus ATCC 6538 [2]; 25% vol/vol, 5 min) was “+”, the growth (S. aureus ATCC 6538 [2]; 25% vol/vol, 15 min) was “+” and the growth (S. aureus ATCC 6538 [2]; 25% vol/vol, 30 min) was “−”. For the same compound, the growth (S. aureus ATCC 6538 [2]; 25% vol/vol, 60 min) was “−”, the growth (C. albicans ATCC 1031; 0.05% vol/vol, 1 min) was “+” and the growth (C. albicans ATCC 1031; 0.05% vol/vol, 3 min) was “+”. The growth (C. albicans ATCC 1031; 0.05% vol/vol, 5 min) was “+”, the growth (C. albicans ATCC 1031; 0.05% vol/vol, 15 min) was “+” and the growth (C. albicans ATCC 1031; 0.05% vol/vol, 30 min) was “+”. The growth (C. albicans ATCC 1031; 0.05% vol/vol, 60 min) was “+”, the growth (C. albicans ATCC 1031; 0.1% vol/vol, 1 min) was “+” and the growth (C. albicans ATCC 1031; 0.1% vol/vol, 3 min) was “+”. For the same compound, the growth (C. albicans ATCC 1031; 0.1% vol/vol, 5 min) was “+”, the growth (C. albicans ATCC 1031; 0.1% vol/vol, 15 min) was “+” and the growth (C. albicans ATCC 1031; 0.1% vol/vol, 30 min) was “+”. For the same compound, the growth (C. albicans ATCC 1031; 0.1% vol/vol, 60 min) was “+”, the growth (C. albicans ATCC 1031; 0.5% vol/vol, 1 min) was “+” and the growth (C. albicans ATCC 1031; 0.5% vol/vol, 3 min) was “+”. For the same compound, the growth (C. albicans ATCC 1031; 0.5% vol/vol, 5 min) was “+”, the growth (C. albicans ATCC 1031; 0.5% vol/vol, 15 min) was “+” and the growth (C. albicans ATCC 1031; 0.5% vol/vol, 30 min) was “+”. For the same compound, the growth (C. albicans ATCC 1031; 0.5% vol/vol, 60 min) was “+”, the growth (C. albicans ATCC 1031; 1% vol/vol, 1 min) was “+” and the growth (C. albicans ATCC 1031; 1% vol/vol, 3 min) was “+”. The growth (C. albicans ATCC 1031; 1% vol/vol, 5 min) was “+”, the growth (C. albicans ATCC 1031; 1% vol/vol, 15 min) was “+” and the growth (C. albicans ATCC 1031; 1% vol/vol, 30 min) was “+”. The growth (C. albicans ATCC 1031; 1% vol/vol, 60 min) was “−”, the growth (C. albicans ATCC 1031; 5% vol/vol, 1 min) was “+” and the growth (C. albicans ATCC 1031; 5% vol/vol, 3 min) was “+”. For the same compound, the growth (C. albicans ATCC 1031; 5% vol/vol, 5 min) was “+”, the growth (C. albicans ATCC 1031; 5% vol/vol, 15 min) was “+” and the growth (C. albicans ATCC 1031; 5% vol/vol, 30 min) was “−”. For the same compound, the growth (C. albicans ATCC 1031; 5% vol/vol, 60 min) was “−”, the growth (C. albicans ATCC 1031; 10% vol/vol, 1 min) was “+” and the growth (C. albicans ATCC 1031; 10% vol/vol, 3 min) was “+”. The growth (C. albicans ATCC 1031; 10% vol/vol, 5 min) was “+”, the growth (C. albicans ATCC 1031; 10% vol/vol, 15 min) was “+” and the growth (C. albicans ATCC 1031; 10% vol/vol, 30 min) was “−”. The growth (C. albicans ATCC 1031; 10% vol/vol, 60 min) was “−”, the growth (C. albicans ATCC 1031; 25% vol/vol, 1 min) was “+” and the growth (C. albicans ATCC 1031; 25% vol/vol, 3 min) was “+”. For the same compound, the growth (C. albicans ATCC 1031; 25% vol/vol, 5 min) was “+”, the growth (C. albicans ATCC 1031; 25% vol/vol, 15 min) was “−” and the growth (C. albicans ATCC 1031; 25% vol/vol, 30 min) was “−”. For the same compound, the growth (C. albicans ATCC 1031; 25% vol/vol, 60 min) was “−”, the “Concentration at which hemolysis is not observed” value ([3]; component of test compound Bardac 22 + Chlorohexidine Gluconate + Tergitol NP-9) was 0.001% and the “Concentration at which hemolysis is not observed” value ([3]; component of test compound Bardac 22 + Chlorohexidine Gluconate) was 0.0125%.
